Data as given in patent publication US6613762B2, “Gambogic acid, analogs and derivatives as activators of caspases and inducers of apoptosis” (Cytovia, Inc., priority 1999, dated 2003).

How the values were obtained:
[1] = system: caspase activity, ZR-75 cells; test: Caspase induction and its inhibition by caspase inhibitor (Example 97), ZR-75; format: cell-based, human; design: key to Inhibition of caspase activity by Inhibitor: The caspase activity detected was inhibited by the caspase inhibitor (+)
Method: (§1) T47D, ZR-75, PC3, SHP-77 and A-549 cells were maintained and harvested as described in Example 90. Cells were added to 96-well plates as described in Example 90. The cells were treated with 10 μM gambogic acid, in the presence and in the absence of 10 μM caspase inhibitor cbz-Val-Asp-fmk (Cytovia, Inc.; WO99/18781). The plate was incubated up to 24 h at 37° C in a 5% CO2-95% humidity incubator. Caspase activity was determined by addition of a fluorogenic substrate as described in Example 90.
(§2) Gambogic acid induced caspase activity in a ratio of greater than 2.5 (+) above untreated cell levels in all the tested cancer cell lines (Table IV). The caspase activity detected was inhibited by the caspase inhibitor (+), confirming that the fluorescent signal was due to caspase activity.

HeLa cells = conditions: reported by Asano et al., Phytochemistry 41:815-820 (1996); cited from earlier work
[2] = system: human prostate cancer cell line DU-145; test: Inhibition of cell proliferation (GI50) and cell death (LC50), DU-145; format: cell-based; conditions: DU-145, 48 h; read-out: GI50 (dose for 50% inhibition of cell proliferation)
Method: (§3) T47D, ZR-75-1, PC-3, human prostate cancer cell line DU-145, human non-small cell lung cancer cell line A-549, human small cell lung cancer cell line SHP-77, HL-60 and MRC-5 cells were grown and harvested as in Example 90. […] The samples were mixed by agitation and incubated at 37° C. for 2-4 h in a 5% CO2-95% humidity incubator. […] This determines the possible background absorbance of the test compounds. No absorbance for gambogic acid or its analogs or derivatives was found at 490 nm. After the 2-4 h incubation, the samples were read for absorbance as above (ATest).
(§4) Baseline for GI50 (dose for 50% inhibition of cell proliferation) and LC50 (dose for 50% cell death) of initial cell numbers was determined by adding an aliquot of 90 μl of cells or 90 μl of media, respectively, to wells of a 96-well microtiter plate containing 10 μl of a 10% DMSO in RPMI-1640 media solution. […] The samples were mixed by agitation and incubated at 37° C. for 2-4 h in a 5% CO2-95% humidity incubator. Absorbance was read as above, (AT=0) defining absorbance for initial cell number used as baseline in GI50 determinations and (Amin) defining absorbance for media alone used as baseline in LC50 determinations.
(§5) GI50 (dose for 50% inhibition of cell proliferation)
(§6) LC50 (dose for 50% cell death)
(§7) 50=100×[(ATest−Amin)/(AT=0−Amin)]

[3] = system: poly(ADP)ribose polymerase (PARP) cleavage, T47D cells; test: PARP cleavage western blot, T47D cells; format: cell-based, human
Method: Cleavage of the enzyme poly(ADP)ribose polymerase (PARP) by caspase-3 and related proteases is considered to be one of the molecular hallmarks of caspase-mediated apoptosis. Therefore, the ability of gambogic acid to induce PARP cleavage in four different human tumor cell lines (Jurkat cells, HL-60 cells, T47D cells and PC3 cells) was determined.
Cells were cultured in complete growth medium containing 10% FBS and treated with gambogic acid at concentrations of 2.5 μM or 5 μM for 2 to 4 h. Control cultures were treated with a drug vehicle (DMSO), or the well-characterized apoptosis inducer, staurosporine. At the end of the apoptosis induction period, the cells were harvested, washed once with PBS, quick-frozen on dry ice, and stored at −80° C. The cells were then lysed in a standard immunoblotting lysis buffer and samples of the lysates were electrophoresed on 4% to 20% gradient polyacrylamide gels. The proteins in the gels were then transferred to PVDF membranes and probed with a commercially-available rabbit polyclonal antibody to PARP.

[4] = system: caspase activity, PC-3 cells; test: Caspase induction and its inhibition by caspase inhibitor (Example 97), PC-3; format: cell-based, human; design: key to Inhibition of caspase activity by Inhibitor: The caspase activity detected was inhibited by the caspase inhibitor (+)
Method: as §1, §2

[5] = system: human small cell lung cancer cell line SHP-77; test: Inhibition of cell proliferation (GI50) and cell death (LC50), SHP-77; format: cell-based; conditions: SHP-77, 48 h
Method: as §3, §4, §5, §6, §7

Jurkat T leukemia cells = test: Apoptotic morphology in Jurkat cells; format: cell-based
Method: Jurkat T leukemia cells were grown in RPMI 1640 media (Life Technologies, Inc.)+10% FCS (Sigma Chemical Company) in a 5% CO2-95% humidity incubator at 37° C., and maintained at a cell density between 4 and 8×10^5 cells/ml. Cells were harvested at 200× g and resuspended at 1-2×10^6 cells/ml into RPMI 1640 media+10% FCS, and 3 ml of the cells was dispensed in each of three wells of a 6-well plate. One of the wells was treated with 10 μM caspase inhibitor cbz-Val-Asp-fink (Cytovia, Inc.; WO99/18781) and the plate was incubated at 37° C. in a 5% CO2-95% humidity incubator for 1 h prior to addition of gambogic acid. The wells with and without the caspase inhibitor were treated with 10 μM gambogic acid. The third well was treated with solvent (control cells). The plate was incubated at 37° C. in a 5% CO2-95% humidity incubator.
At 30 min. after addition of gambogic acid an aliquot of cells from each well was taken into the capillary slides and observed under a phase-contrast microscope.

[6] = system: caspase activity, T47D cells and MRC-5 cells; test: Dose response of caspase activation in T47D versus normal fibroblasts MRC-5; format: cell-based, human; conditions: 2 h incubation, two-fold serial dilutions (FIG. 4)
Method: T47D cells and MRC-5 cells were maintained and harvested as described in Example 90. An aliquot of 45 μl of cells was added to each well of a 96-well microtiter plate. To determine the dose response of gambogic acid for inducing caspase activity, 5 μl of 20 μM gambogic acid in RPMI media was added to wells in triplicates. Two-fold serial dilutions were made for the lower concentrations. After incubation for 2 h, the samples were removed from the 5% CO2-95% humidity incubator and caspase activity was determined by addition of a fluorogenic substrate as described in Example 90.

PC-3 cells = test: Inhibition of cell proliferation (GI50) and cell death (LC50), PC-3; format: cell-based; conditions: PC-3, 48 h; read-out: GI50 (dose for 50% inhibition of cell proliferation)
Method: as §3, §4, §5, §6, §7

KB-V1 cell line = conditions: reported by Lin et al., Magn. Reson. Chem. 31:340-347 (1993); cited from earlier work

Compound: CC(C)=CCC[C@]1(C)C=Cc2c(O)c3c(c(CC=C(C)C)c2O1)O[C@]12C(=C[C@@H]4C[C@H]1C(C)(C)O[C@@]2(C/C=C(/C)C(=O)O)C4=O)C3=O [Example 1, Gambogic Acid]
- Inhibition of caspase activity by Inhibitor ([1]; ZR-75, 10 μM gambogic acid with 10 μM caspase inhibitor cbz-Val-Asp-fmk): +
- Caspase activity ([1]; ZR-75, 10 μM gambogic acid, up to 24 h): + (Gambogic acid induced caspase activity in a ratio of greater than 2.5 (+) above untreated cell levels)
- Cytotoxicity to HeLa cells (HeLa cells): cytotoxic
- GI50 [2]: 0.5 µM
- PARP cleavage ([3]; 2.5 μM and 5 μM, 4 h (FIG. 5C)): almost complete PARP cleavage
- PARP cleavage ([3]; 2.5 μM, 2 h (FIG. 5C)): moderate induction of PARP cleavage
- PARP cleavage ([3]; 5 μM, 2 h (FIG. 5C)): almost complete PARP cleavage
- Inhibition of caspase activity by Inhibitor ([4]; PC-3, 10 μM gambogic acid with 10 μM caspase inhibitor cbz-Val-Asp-fmk): +
- Caspase activity ([4]; PC-3, 10 μM gambogic acid, up to 24 h): + (Gambogic acid induced caspase activity in a ratio of greater than 2.5 (+) above untreated cell levels)
- GI50 ([5]; read-out: GI50 (dose for 50% inhibition of cell proliferation)): 0.5 µM
- CC50 ([5]; read-out: LC50 (dose for 50% cell death)): 0.5 µM
- Cell morphology of Jurkat cells in presence of caspase inhibitor (Jurkat T leukemia cells; 10 μM gambogic acid, 30 min, with 10 μM caspase inhibitor cbz-Val-Asp-fink (FIG. 3C)): prevented the morphological changes
- Cell morphology of Jurkat cells (Jurkat T leukemia cells; 10 μM, 30 min (FIG. 3B)): blebbing and cellular fragmentation
- Sensitivity of T47D to induction of caspase activity relative to MRC-5 (dose response) [6]: more sensitive to induction of caspase activity than a normal fibroblast cell line MRC-5
- GI50 (PC-3 cells): 0.5 µM
- Cytotoxicity against KB-V1 cell line (KB-V1 cell line): cytotoxic
